Earlier results as cited in US20060058387A1, “Composition and method for treating skin conditions” (priority 2004, published 2006).

Tests used:
[1] = children, dosage intakes of 200-800 mg/kg
interstitial cystitis = details: bladder instillations of a 50% aqueous solution

C[N+](C)(C)CC(O)CC(=O)[O-] (stereo not drawn) [carnitin, γ-Trimethyl-β-hydroxybutyrobetain]
side effects [1]: No side effects were observed

Sulphinyl-bis-methane [DMSO]
effect on symptoms of interstitial cystitis (interstitial cystitis): appear to alleviate symptoms

CC1=C(/C=C/C(C)=C/C=C/C(C)=C/C(=O)O)C(C)(C)CCC1 [tretinoin, all-trans retinoic acid]
binding to plasma proteins (in vivo): highly bound | terminal elimination half-life (in vivo): 30 to 120 min | oral bioavailability (oral): about 50% | time to peak plasma concentrations (oral administration): 1 to 2 h
